From patent US20090325964A1, “Piperazine Metabotropic Glutamate Receptor 5 (MGLUR5) Negative Allosteric Modulators For Anxiety/Depression” (Wyeth, priority 2008, published 2009)
Like-named read-outs stand apart in the source and are kept apart here. Each block holds one molecule with its values, some of them ahead of it.

Molecular target: T1, rat mGluR5 receptor (Rattus norvegicus, UniProt P31424)
T1 construct: expressed in transfected cells; host or cells: HEK-293
Test: [3H]-MPEP displacement binding assay, HEK-293 cell membranes expressing rat mGluR5
Details: for Ki: read-out: Median Ki
Procedure: MGluR5 expressing HEK-293 cells were scraped off a plate, transferred to centrifuge tubes and washed twice by centrifugation (2000 rpm for 10 minutes, at 4° C.) in buffer (50 mM Tris pH 7.5). The resulting pellets were aliquoted and stored at minus 80° C. On the day of assay, the cells were thawed on ice and re-suspended in buffer. The binding assay was performed in a 96 well microtiter plate in a total volume of […]. Non-specific binding was determined in the presence of 10 μM MPEP. The binding reaction included a final radioligand [^3H]-MPEP concentration of 4 nM and 12-25 μg membrane protein per well. Following a 60 minute incubation at room temperature, the reaction was terminated by the addition of ice cold buffer and rapid filtration through a GF/B filter that had been presoaked for 30 minutes in 0.5% PEI. Compounds were initially tested in a single point assay to determine percent inhibition at 10 μM.
Percent inhibition and Ki values were generated by GraphPad Prism and Excel Fit. IC50 values were calculated using GraphPad by fitting to a 1 or 2 site-binding model.
where [L] is the concentration of free radioligand and Kd is the dissociation constant of radioligand for the receptor.

[1] = @ 10 μM compound, Biological Activity, Table 2A, read-out: PCT INHIB (%) @ 10 μM
[2] = 1 h, single point, @ 10 μm compound, Table 1A, read-out: PCT INHIB (%) @ 10 μm
[3] = [3H]-MPEP displacement, rat mGluR5
[4] = [3H]-MPEP displacement, rat mGluR5 membranes
[5] = [3H]-MPEP displacement, rat mGluR5, no Ki given, read-out: IC50 (printed in the Median Ki column instead of a Ki)

T1 sequence (P31424 21-1203): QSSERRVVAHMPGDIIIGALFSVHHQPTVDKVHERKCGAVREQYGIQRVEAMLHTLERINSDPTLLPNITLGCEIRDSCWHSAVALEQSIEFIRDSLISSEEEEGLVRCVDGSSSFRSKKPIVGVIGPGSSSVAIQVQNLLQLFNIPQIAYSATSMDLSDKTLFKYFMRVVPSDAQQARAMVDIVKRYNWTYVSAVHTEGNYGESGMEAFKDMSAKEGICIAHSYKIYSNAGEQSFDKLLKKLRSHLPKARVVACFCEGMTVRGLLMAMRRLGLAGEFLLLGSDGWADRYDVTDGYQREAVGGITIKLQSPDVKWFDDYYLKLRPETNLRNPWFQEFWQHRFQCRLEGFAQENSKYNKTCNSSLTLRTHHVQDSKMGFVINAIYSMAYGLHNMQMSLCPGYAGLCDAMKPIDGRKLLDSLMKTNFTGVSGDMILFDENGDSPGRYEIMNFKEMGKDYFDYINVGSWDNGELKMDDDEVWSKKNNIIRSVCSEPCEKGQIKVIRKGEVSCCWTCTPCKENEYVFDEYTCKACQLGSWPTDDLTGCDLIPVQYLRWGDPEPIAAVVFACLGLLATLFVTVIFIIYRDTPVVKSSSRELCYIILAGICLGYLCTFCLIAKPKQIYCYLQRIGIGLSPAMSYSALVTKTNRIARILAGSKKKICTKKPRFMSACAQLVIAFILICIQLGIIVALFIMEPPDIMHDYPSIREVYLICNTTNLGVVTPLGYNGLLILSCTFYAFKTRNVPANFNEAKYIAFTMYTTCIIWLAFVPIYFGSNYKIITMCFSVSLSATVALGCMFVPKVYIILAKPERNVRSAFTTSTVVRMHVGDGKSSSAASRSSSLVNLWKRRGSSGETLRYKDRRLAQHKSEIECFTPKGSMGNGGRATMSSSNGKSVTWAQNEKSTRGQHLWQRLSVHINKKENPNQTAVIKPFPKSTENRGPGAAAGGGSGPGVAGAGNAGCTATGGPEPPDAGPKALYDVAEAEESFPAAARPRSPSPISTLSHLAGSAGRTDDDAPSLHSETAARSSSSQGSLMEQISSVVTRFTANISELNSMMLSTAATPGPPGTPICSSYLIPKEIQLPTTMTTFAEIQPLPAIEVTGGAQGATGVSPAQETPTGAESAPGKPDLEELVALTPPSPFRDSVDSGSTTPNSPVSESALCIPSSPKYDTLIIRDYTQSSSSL

SMILES: O=C(c1ccnc(C#Cc2ccccc2)c1)N1CCN(c2ncccn2)CC1 [Compound 120, 2-{4-[2-(phenylethynyl)isonicotinoyl]piperazin-1-yl}pyrimidine]
- inhibition at 10 µM [1]: 49%
- Ki (Biological Activity, Table 2A): 2890 nM

SMILES: Cc1ccnc(N2CCN(C(=O)c3cncc(C#Cc4ccccc4)c3)CC2)c1 [Compound 133, 1-(4-methylpyridin-2-yl)-4-{[5-(phenylethynyl)pyridin-3-yl]carbonyl}piperazine]
- inhibition at 10 µM [1]: 52%
- Ki (Biological Activity, Table 2A): 651 nM

SMILES: O=C(c1cccc(C#Cc2ccccc2)c1)N1CCN(c2ccc(O)cc2)CC1 [Compound 83, 4-{4-[3-(phenylethynyl)benzoyl]piperazin-1-yl}phenol]
- inhibition at 10 µM [1]: 74%
- Ki (Biological Activity, Table 2A): > 10000 nM

SMILES: Cc1ccc(N2CCN(C(=O)c3cccc(C#Cc4ccccc4)c3)CC2)cc1 [Compound 73, 1-(4-methylphenyl)-4-[3-(phenylethynyl)benzoyl]piperazine]
- inhibition at 10 µM [1]: 0%

SMILES: O=C(c1ccc(C(F)(F)F)c(C#Cc2ccccn2)c1)N1CCN(Cc2cccc(F)c2)CC1 [Compound 376, 1-(3-fluorobenzyl)-4-{[3-(pyridin-2-ylethynyl)-4-(trifluoromethyl)phenyl]carbonyl}piperazine]
- Ki [4]: 811 nM

SMILES: O=C(c1cccc(C#Cc2ccccc2)c1)N1CCN(c2ccccc2)CC1 [Compound 76, 1-phenyl-4-[3-(phenylethynyl)benzoyl]piperazine]
- inhibition at 10 µM [1]: 86%
- Ki (Biological Activity, Table 2A): 1290 nM

SMILES: COc1nc(N2CCN(C(=O)c3ccc(C(F)(F)F)c(C#Cc4ccccn4)c3)CC2)ncc1Br [Compound 365, 5-bromo-4-methoxy-2-(4-{[3-(pyridin-2-ylethynyl)-4-(trifluoromethyl)phenyl]carbonyl}piperazin-1-yl)pyrimidine]
- IC50 (bound printed in place of a Ki, read-out: IC50 (printed in the Median Ki column)): > 10000 nM

SMILES: O=S(=O)(c1cccc(C#CCc2ccccc2)c1)N1CCN(c2ccccn2)CC1 [Compound 174, 1-{[3-(3-phenylprop-1-yn-1-yl)phenyl]sulfonyl}-4-pyridin-2-ylpiperazine]
- inhibition at 10 µM (single point, @ 10 μM compound, Table 5, read-out: PCT INHIB (%) @ 10 μM): 0%

SMILES: COc1ccc(C(=O)N2CCN(c3ncccc3Cl)CC2)cc1C#Cc1ccc([N+](=O)[O-])cc1 [Compound 350, 1-(3-chloropyridin-2-yl)-4-{4-methoxy-3-[(4-nitrophenyl)ethynyl]benzoyl}piperazine]
- IC50 [5]: > 10000 nM

SMILES: COc1ccc(C(=O)N2CCN(C(=O)c3ccccc3OC)CC2)cc1C#Cc1ccccn1 [Compound 263, 1-(2-methoxybenzoyl)-4-[4-methoxy-3-(pyridin-2-ylethynyl)benzoyl]piperazine]
- Ki [3]: 169 nM

SMILES: COc1ccc(C(=O)N2CCN(c3ncccc3Cl)CC2)cc1C#Cc1ccc(C(C)=O)cc1 [Compound 347, 1-{4-[(5-{[4-(3-chloropyridin-2-yl)piperazin-1-yl]carbonyl}-2-methoxyphenyl)ethynyl]phenyl}ethanone]
- IC50 [5]: > 10000 nM

SMILES: O=C(c1ccc(F)c(C#Cc2ccccn2)c1)N1CCN(c2ncccn2)CC1 [Compound 312, 2-{4-[4-Fluoro-3-(pyridin-2-ylethynyl)benzoyl]piperazin-1-yl}pyrimidine]
- Ki [3]: 84 nM

SMILES: Cc1ccc(N2CCN(C(=O)c3ccc(C(F)(F)F)c(C#Cc4ccccn4)c3)CC2)nc1 [Compound 372, 1-(5-methylpyridin-2-yl)-4-{[3-(pyridin-2-ylethynyl)-4-(trifluoromethyl)phenyl]carbonyl}piperazine]
- Ki [4]: 292 nM

SMILES: COc1ccc(C(=O)N2CCN(S(=O)(=O)c3cccc(Cl)c3)CC2)cc1C#Cc1ccccn1 [Compound 279, 1-[(3-chlorophenyl)sulfonyl]-4-[4-methoxy-3-(pyridin-2-ylethynyl)benzoyl]piperazine]
- Ki [3]: 832 nM

SMILES: COc1ccc(C(=O)N2CCN(c3ccc(C(F)(F)F)cn3)CC2)cc1C#Cc1ccccc1 [Compound 114, 1-[4-methoxy-3-(phenylethynyl)benzoyl]-4-[5-(trifluoromethyl)pyridin-2-yl]piperazine]
- inhibition at 10 µM [1]: 26%

SMILES: COc1ccc(C(=O)N2CCN(S(=O)(=O)c3ccc(Br)s3)CC2)cc1C#Cc1ccccn1 [Compound 269, 1-[(5-bromo-2-thienyl)sulfonyl]-4-[4-methoxy-3-(pyridin-2-ylethynyl)benzoyl]piperazine]
- Ki [3]: 49 nM

SMILES: COc1ccc(C(=O)N2CCN(S(=O)(=O)c3ccccc3Cl)CC2)cc1C#Cc1ccccn1 [Compound 278, 1-[(2-chlorophenyl)sulfonyl]-4-[4-methoxy-3-(pyridin-2-ylethynyl)benzoyl]piperazine]
- Ki [3]: 876 nM

Further lines, results first:

- inhibition at 10 µM [1]: 81%
- Ki (Biological Activity, Table 2A): 357 nM
SMILES: COc1ccc(C(=O)N2CCN(c3ccc(C#N)cn3)CC2)cc1C#Cc1ccccc1 [Compound 113, 6-{4-[4-methoxy-3-(phenylethynyl)benzoyl]piperazin-1-yl}nicotinonitrile]

- inhibition at 10 µM [2]: 79%
- Ki: 1940 nM
SMILES: COc1ccc(C(=O)N2CCN(c3ccccn3)CC2)cc1C#Cc1cc(F)cc(F)c1 [Compound 21, 1-{3-[(3,5-difluorophenyl)ethynyl]-4-methoxybenzoyl}-4-pyridin-2-ylpiperazine]

- Ki ([3H]-MPEP 4 nM, Table 4A): 862 nM
SMILES: O=C(c1cccc(COc2cccc(Br)c2)c1)N1CCN(c2ccccn2)CC1 [Compound 169, 1-{3-[(3-bromophenoxy)methyl]benzoyl}-4-pyridin-2-ylpiperazine]

- inhibition at 10 µM [1]: 58%
- Ki (Biological Activity, Table 2A): 2770 nM
SMILES: O=C(c1cccc(C#Cc2ccccc2)c1)N1CCN(c2cccc(Cl)c2)CC1 [Compound 82, 1-(3-chlorophenyl)-4-[3-(phenylethynyl)benzoyl]piperazine]

- inhibition at 10 µM [1]: 35%
SMILES: COc1ccc(C(=O)N2CCN(c3cccc(C(F)(F)F)n3)CC2)cc1C#Cc1ccccc1 [Compound 117, 1-[4-methoxy-3-(phenylethynyl)benzoyl]-4-[6-(trifluoromethyl)pyridin-2-yl]piperazine]

- Ki [3]: 1130 nM
SMILES: COc1ccc(C(=O)N2CCN(c3ncccc3Cl)CC2)cc1C#Cc1ccccc1 [Compound 341, 1-(3-chloropyridin-2-yl)-4-[4-methoxy-3-(phenylethynyl)benzoyl]piperazine]

- inhibition at 10 µM (single point, @ 10 μM compound, Table 3A, read-out: PCT INHIB (%) @ 10 μM): 0%
SMILES: Cc1cccc(COc2cccc(C(=O)N3CCN(c4ccccn4)CC3)c2)c1 [Compound 150, 1-{3-[(3-methylbenzyl)oxy]benzoyl}-4-pyridin-2-ylpiperazine]

- inhibition at 10 µM [1]: 90%
- Ki (Biological Activity, Table 2A): 62.5 nM
SMILES: COc1ccc(C(=O)N2CCN(c3ncccn3)CC2)cc1C#Cc1ccccc1 [Compound 112, 2-{4-[4-methoxy-3-(phenylethynyl)benzoyl]piperazin-1-yl}pyrimidine]

- Ki [3]: 287 nM
SMILES: COc1ccc(C(=O)N2CCN(c3ncccn3)CC2)cc1C#Cc1ccccc1F [Compound 359, 2-(4-{3-[(2-fluorophenyl)ethynyl]-4-methoxybenzoyl}piperazin-1-yl)pyrimidine]

- Ki [3]: 951 nM
SMILES: COc1ccc(C(=O)N2CCN(c3cc4ccc(Cl)cc4cn3)CC2)cc1C#Cc1ccccn1 [Compound 260, 7-chloro-3-{4-[4-methoxy-3-(pyridin-2-ylethynyl)benzoyl]piperazin-1-yl}isoquinoline]

- inhibition at 10 µM [2]: 0%
SMILES: COc1cc(C#Cc2cc(C(=O)N3CCN(c4ccccn4)CC3)ccc2C)cc(OC)c1 [Compound 40, 1-{3-[(3,5-dimethoxyphenyl)ethynyl]-4-methylbenzoyl}-4-pyridin-2-ylpiperazine]

- Ki ([3H]-MPEP 4 nM, Table 4A): > 10000 nM
SMILES: COc1cccc(OCc2cccc(C(=O)N3CCN(c4ccccn4)CC3)c2)c1 [Compound 167, 1-{3-[(3-methoxyphenoxy)methyl]benzoyl}-4-pyridin-2-ylpiperazine]

- inhibition at 10 µM [2]: 81%
- Ki: 469 nM
SMILES: Cc1ccc(C(=O)N2CCN(c3ccccn3)CC2)cc1C#Cc1cccc(C(F)(F)F)c1 [Compound 27, 1-(4-methyl-3-{[3-(trifluoromethyl)phenyl]ethynyl}benzoyl)-4-pyridin-2-ylpiperazine]

- inhibition at 10 µM [1]: 64%
- Ki (Biological Activity, Table 2A): 1450 nM
SMILES: O=C(c1cccc(C#Cc2ccccn2)c1)N1CCN(c2ncc(O)cn2)CC1 [Compound 99, 2-{4-[3-(pyridin-2-ylethynyl)benzoyl]piperazin-1-yl}pyrimidin-5-ol]

- Ki [3]: 1040 nM
SMILES: COc1ccc(C(=O)N2CCCN(c3ccc(C#N)cn3)CC2)cc1C#Cc1ccccn1 [Compound 202, 6-{4-[4-methoxy-3-(pyridin-2-ylethynyl)benzoyl]-1,4-diazepan-1-yl}nicotinonitrile]

- inhibition at 10 µM [1]: 79%
- Ki (Biological Activity, Table 2A): 395 nM
SMILES: O=C(c1cccc(C#Cc2ccccn2)c1)N1CCN(c2cnccn2)CC1 [Compound 94, 2-{4-[3-(pyridin-2-ylethynyl)benzoyl]piperazin-1-yl}pyrazine]

- Ki: 2.11 nM
SMILES: COc1ccc(C(=O)N2CCN(c3cnccn3)CC2)cc1C#Cc1cccc(Cl)c1 [Compound 65, 2-(4-{3-[(3-chlorophenyl)ethynyl]-4-methoxybenzoyl}piperazin-1-yl)pyrazine]

- inhibition at 10 µM [2]: 68%
- Ki: 3110 nM
SMILES: Cc1ccc(C(=O)N2CCN(c3ccccn3)CC2)cc1C#Cc1cccnc1 [Compound 32, 1-[4-methyl-3-(pyridin-3-ylethynyl)benzoyl]-4-pyridin-2-ylpiperazine]
